Measured values reported in patent US9439432B2, “Phenylisoxazoline-based compound having herbicidal activity and use thereof” (MOGHU RESEARCH CENTER LTD, priority 2011, dated 2016).

Assays:
Assay type in all cases: in vivo
Poa annua [1] = assay: Post-emergence treatment, herbicidal efficacy on annual bluegrass; details: 4 weeks after spraying, scale 0 to 10
Description: (§1) A rectangular plastic pot having a surface area of 300 cm^2 was filled with sandy loam soil and mixed bed soil which were mixed at a ratio of 1:1, and then, barnyardrass (Echinochloa crusgalli), large crabgrass (Digitaria sanguinalis), blackgrass (Alopecurus myosuroides), and annual bluegrass (Poa annua), which are grass weeds, were seeded thereto. In a pot that was prepared as described above, seeds of corn, soybean, cotton, wheat, and rice were seeded. The pots were irrigated, and one day after, chemicals were sprayed thereto. The spraying was performed by using a track sprayer (R&D Sprayer, USA) equipped with a Teejet 8002 (Spraying Systems Co., USA) nozzle, and a spraying amount was adjusted at 300 L/ha. A spraying solution was prepared by dissolving test materials or references in acetone and adding the same amount of 0.2%(v/v) tween 20 aqueous solution thereto. Application rates were 500, 250, 125, and 62.5 g/ha. The pots were placed in a greenhouse in which during day, the temperature was maintained at a temperature of 25 to 30° C., and during night, the temperature was maintained at a temperature of 15 to 25° C., and the pots were periodically irrigated. Four weeks after the spraying the test materials or References, effects and phytotoxicity of the respective weeds and crops were evaluated in a scale of 0 to 10 (0: no effects, 10: complete death), and results thereof are shown in Table 4 below.
(§2) Pots containing crops and weeds were prepared in the same manner as in Example 7, and then, in the second week in which crops and weeds entered into about 3 leaf stage, the test materials and the references were sprayed thereto in the same manner as described above. The rates were 1,000, 500, 250, and 125 g/ha. Four weeks after the spraying of the test materials or the references, herbicidal efficacy and phytotoxicity to the respective weeds and crops were evaluated in a scale of 0 to 10 (0: no effects, 10: complete death).

Corn [2] = assay: Pre-emergence treatment, phytotoxicity to corn; details: 500 g/ha, 4 weeks after spraying, scale 0 to 10 (0: no effects, 10: complete death)
Description: as §1

Corn [3] = assay: Post-emergence treatment, phytotoxicity to corn; details: post-emergence (about 3 leaf stage), 1,000 g/ha, 4 weeks after spraying, scale 0 to 10 (0: no effects, 10: complete death)
Description: as §1, §2

Rice [4] = assay: Post-emergence treatment, phytotoxicity to rice; details: post-emergence (about 3 leaf stage), 1,000 g/ha, 4 weeks after spraying, scale 0 to 10 (0: no effects, 10: complete death)
Description: as §1, §2

Wheat [5] = assay: Pre-emergence treatment, phytotoxicity to wheat; details: 500 g/ha, 4 weeks after spraying, scale 0 to 10 (0: no effects, 10: complete death)
Description: as §1

Echinochloa crusgalli [6] = assay: Pre-emergence treatment, herbicidal efficacy on barnyardgrass; details: 4 weeks after spraying
Description: as §1

Alopecurus myosuroides [7] = assay: Post-emergence treatment, herbicidal efficacy on blackgrass; details: 4 weeks after spraying, scale 0 to 10
Description: as §1, §2

Rice [8] = assay: Pre-emergence treatment, phytotoxicity to rice; details: 500 g/ha, 4 weeks after spraying, scale 0 to 10 (0: no effects, 10: complete death)
Description: as §1

Poa annua [9] = assay: Pre-emergence treatment, herbicidal efficacy on annual bluegrass; details: 4 weeks after spraying, scale 0 to 10
Description: as §1

Soybean [10] = assay: Post-emergence treatment, phytotoxicity to soybean; details: post-emergence (about 3 leaf stage), 1,000 g/ha, 4 weeks after spraying, scale 0 to 10 (0: no effects, 10: complete death)
Description: as §1, §2

Digitaria sanguinalis [11] = assay: Post-emergence treatment, herbicidal efficacy on large crabgrass; details: 4 weeks after spraying, scale 0 to 10
Description: as §1, §2

Soybean [12] = assay: Pre-emergence treatment, phytotoxicity to soybean; details: 500 g/ha, 4 weeks after spraying, scale 0 to 10 (0: no effects, 10: complete death)
Description: as §1

Wheat [13] = assay: Post-emergence treatment, phytotoxicity to wheat; details: post-emergence (about 3 leaf stage), 1,000 g/ha, 4 weeks after spraying, scale 0 to 10 (0: no effects, 10: complete death)
Description: as §1, §2

Alopecurus myosuroides [14] = assay: Pre-emergence treatment, herbicidal efficacy on blackgrass; details: 4 weeks after spraying, scale 0 to 10
Description: as §1

Echinochloa crusgalli [15] = assay: Post-emergence treatment, herbicidal efficacy on barnyardgrass; details: 4 weeks after spraying, scale 0 to 10
Description: as §1, §2

Cotton [16] = assay: Pre-emergence treatment, phytotoxicity to cotton; details: 500 g/ha, 4 weeks after spraying, scale 0 to 10 (0: no effects, 10: complete death)
Description: as §1

Digitaria sanguinalis [17] = assay: Pre-emergence treatment, herbicidal efficacy on large crabgrass; details: 4 weeks after spraying, scale 0 to 10
Description: as §1

Cotton [18] = assay: Post-emergence treatment, phytotoxicity to cotton; details: post-emergence (about 3 leaf stage), 1,000 g/ha, 4 weeks after spraying, scale 0 to 10 (0: no effects, 10: complete death)
Description: as §1, §2

[19] = 500 g/ha, scale 0 to 10 (0: no effects, 10: complete death)

Cc1ccc(C2=NOC(C)(COCc3c(F)cccc3F)C2)cc1 (stereo not drawn) [Reference G]
Herbicidal efficacy, Poa annua (Poa annua [1]; post-emergence, 125 g/ha): 0 | Herbicidal efficacy, Poa annua (Poa annua [1]; post-emergence, 250 g/ha): 1 | Herbicidal efficacy, Poa annua (Poa annua [1]; post-emergence, 500 g/ha): 4 | Herbicidal efficacy, Poa annua (Poa annua [1]; post-emergence, 1,000 g/ha): 6 | Phytotoxicity, Corn (Corn [2]): 0 | Phytotoxicity, Corn (Corn [3]): 0 | Phytotoxicity, Rice (Rice [4]): 0 | Phytotoxicity, Wheat (Wheat [5]): 0 | Herbicidal efficacy, Echinochloa crusgalli (Echinochloa crusgalli [6]; 62.5 g/ha, scale 0 to 10): 0 | Herbicidal efficacy, Echinochloa crusgalli (Echinochloa crusgalli [6]; 125 g/ha, scale 0 to 10): 3 | Herbicidal efficacy, Echinochloa crusgalli (Echinochloa crusgalli [6]; 250 g/ha, scale 0 to 10): 7 | Herbicidal efficacy, Echinochloa crusgalli (Echinochloa crusgalli [6]; [19]): 10 | Herbicidal efficacy, Alopecurus myosuroides (Alopecurus myosuroides [7]; post-emergence, 125 g/ha): 0 | Herbicidal efficacy, Alopecurus myosuroides (Alopecurus myosuroides [7]; post-emergence, 250 g/ha): 0 | Herbicidal efficacy, Alopecurus myosuroides (Alopecurus myosuroides [7]; post-emergence, 500 g/ha): 2 | Herbicidal efficacy, Alopecurus myosuroides (Alopecurus myosuroides [7]; post-emergence, 1,000 g/ha): 3 | Phytotoxicity, Rice (Rice [8]): 0 | Herbicidal efficacy, Poa annua (Poa annua [9]; 62.5 g/ha): 1 | Herbicidal efficacy, Poa annua (Poa annua [9]; 125 g/ha): 4 | Herbicidal efficacy, Poa annua (Poa annua [9]; 250 g/ha): 8 | Herbicidal efficacy, Poa annua (Poa annua [9]; 500 g/ha): 9 | Phytotoxicity, Soybean (Soybean [10]): 2 | Herbicidal efficacy, Digitaria sanguinalis (Digitaria sanguinalis [11]; post-emergence, 125 g/ha): 0 | Herbicidal efficacy, Digitaria sanguinalis (Digitaria sanguinalis [11]; post-emergence, 250 g/ha): 0 | Herbicidal efficacy, Digitaria sanguinalis (Digitaria sanguinalis [11]; post-emergence, 500 g/ha): 4 | Herbicidal efficacy, Digitaria sanguinalis (Digitaria sanguinalis [11]; post-emergence, 1,000 g/ha): 6 | Phytotoxicity, Soybean (Soybean [12]): 0 | Phytotoxicity, Wheat (Wheat [13]): 0 | Herbicidal efficacy, Alopecurus myosuroides (Alopecurus myosuroides [14]; 62.5 g/ha): 0 | Herbicidal efficacy, Alopecurus myosuroides (Alopecurus myosuroides [14]; 125 g/ha): 0 | Herbicidal efficacy, Alopecurus myosuroides (Alopecurus myosuroides [14]; 250 g/ha): 0 | Herbicidal efficacy, Alopecurus myosuroides (Alopecurus myosuroides [14]; 500 g/ha): 3 | Herbicidal efficacy, Echinochloa crusgalli (Echinochloa crusgalli [15]; post-emergence, 125 g/ha): 0 | Herbicidal efficacy, Echinochloa crusgalli (Echinochloa crusgalli [15]; post-emergence, 250 g/ha): 2 | Herbicidal efficacy, Echinochloa crusgalli (Echinochloa crusgalli [15]; post-emergence, 500 g/ha): 5 | Herbicidal efficacy, Echinochloa crusgalli (Echinochloa crusgalli [15]; post-emergence, 1,000 g/ha): 6 | Phytotoxicity, Cotton (Cotton [16]): 0 | Herbicidal efficacy, Digitaria sanguinalis (Digitaria sanguinalis [17]; 62.5 g/ha): 1 | Herbicidal efficacy, Digitaria sanguinalis (Digitaria sanguinalis [17]; 125 g/ha): 4 | Herbicidal efficacy, Digitaria sanguinalis (Digitaria sanguinalis [17]; 250 g/ha): 8 | Herbicidal efficacy, Digitaria sanguinalis (Digitaria sanguinalis [17]; 500 g/ha): 10 | Phytotoxicity, Cotton (Cotton [18]): 0

CC1(COCc2c(F)cccc2Cl)CC(c2ccccc2)=NO1 (stereo not drawn) [Reference H]
Herbicidal efficacy, Poa annua (Poa annua [1]; post-emergence, 125 g/ha): 0 | Herbicidal efficacy, Poa annua (Poa annua [1]; post-emergence, 250 g/ha): 0 | Herbicidal efficacy, Poa annua (Poa annua [1]; post-emergence, 500 g/ha): 2 | Herbicidal efficacy, Poa annua (Poa annua [1]; post-emergence, 1,000 g/ha): 4 | Phytotoxicity, Corn (Corn [2]): 2 | Phytotoxicity, Corn (Corn [3]): 0 | Phytotoxicity, Rice (Rice [4]): 0 | Phytotoxicity, Wheat (Wheat [5]): 0 | Herbicidal efficacy, Echinochloa crusgalli (Echinochloa crusgalli [6]; 62.5 g/ha, scale 0 to 10): 0 | Herbicidal efficacy, Echinochloa crusgalli (Echinochloa crusgalli [6]; 125 g/ha, scale 0 to 10): 0 | Herbicidal efficacy, Echinochloa crusgalli (Echinochloa crusgalli [6]; 250 g/ha, scale 0 to 10): 2 | Herbicidal efficacy, Echinochloa crusgalli (Echinochloa crusgalli [6]; [19]): 9 | Herbicidal efficacy, Alopecurus myosuroides (Alopecurus myosuroides [7]; post-emergence, 125 g/ha): 0 | Herbicidal efficacy, Alopecurus myosuroides (Alopecurus myosuroides [7]; post-emergence, 250 g/ha): 0 | Herbicidal efficacy, Alopecurus myosuroides (Alopecurus myosuroides [7]; post-emergence, 500 g/ha): 0 | Herbicidal efficacy, Alopecurus myosuroides (Alopecurus myosuroides [7]; post-emergence, 1,000 g/ha): 0 | Phytotoxicity, Rice (Rice [8]): 0 | Herbicidal efficacy, Poa annua (Poa annua [9]; 62.5 g/ha): 0 | Herbicidal efficacy, Poa annua (Poa annua [9]; 125 g/ha): 0 | Herbicidal efficacy, Poa annua (Poa annua [9]; 250 g/ha): 2 | Herbicidal efficacy, Poa annua (Poa annua [9]; 500 g/ha): 8 | Phytotoxicity, Soybean (Soybean [10]): 0 | Herbicidal efficacy, Digitaria sanguinalis (Digitaria sanguinalis [11]; post-emergence, 125 g/ha): 0 | Herbicidal efficacy, Digitaria sanguinalis (Digitaria sanguinalis [11]; post-emergence, 250 g/ha): 0 | Herbicidal efficacy, Digitaria sanguinalis (Digitaria sanguinalis [11]; post-emergence, 500 g/ha): 1 | Herbicidal efficacy, Digitaria sanguinalis (Digitaria sanguinalis [11]; post-emergence, 1,000 g/ha): 5 | Phytotoxicity, Soybean (Soybean [12]): 0 | Phytotoxicity, Wheat (Wheat [13]): 0 | Herbicidal efficacy, Alopecurus myosuroides (Alopecurus myosuroides [14]; 62.5 g/ha): 0 | Herbicidal efficacy, Alopecurus myosuroides (Alopecurus myosuroides [14]; 125 g/ha): 0 | Herbicidal efficacy, Alopecurus myosuroides (Alopecurus myosuroides [14]; 250 g/ha): 2 | Herbicidal efficacy, Alopecurus myosuroides (Alopecurus myosuroides [14]; 500 g/ha): 9 | Herbicidal efficacy, Echinochloa crusgalli (Echinochloa crusgalli [15]; post-emergence, 125 g/ha): 0 | Herbicidal efficacy, Echinochloa crusgalli (Echinochloa crusgalli [15]; post-emergence, 250 g/ha): 0 | Herbicidal efficacy, Echinochloa crusgalli (Echinochloa crusgalli [15]; post-emergence, 500 g/ha): 0 | Herbicidal efficacy, Echinochloa crusgalli (Echinochloa crusgalli [15]; post-emergence, 1,000 g/ha): 4 | Phytotoxicity, Cotton (Cotton [16]): 0 | Herbicidal efficacy, Digitaria sanguinalis (Digitaria sanguinalis [17]; 62.5 g/ha): 0 | Herbicidal efficacy, Digitaria sanguinalis (Digitaria sanguinalis [17]; 125 g/ha): 0 | Herbicidal efficacy, Digitaria sanguinalis (Digitaria sanguinalis [17]; 250 g/ha): 2 | Herbicidal efficacy, Digitaria sanguinalis (Digitaria sanguinalis [17]; 500 g/ha): 10 | Phytotoxicity, Cotton (Cotton [18]): 0
